“And” between values parts separate entries of the source, which are not always exact repeats. Equal values may be shown once. Read-outs that look alike come from different tables or passages of the source.
Tests used:
Assay type in all cases: cell-based
[1] = system: SUIT 2.28; experiment: Wound healing assay, SUIT 2.28
Protocol: (§1) The wound healing assay was used to test the migratory ability of the selected cells post‐treatment. Cells (5 × 10^4 /well) were seeded on 96‐well. After 24 h, cells reached the optimal 100% confluency, and an artificial wound was created with a 96‐well Pintool Scratcher. The cells were immediately washed with complete medium, in order to remove cell debris after the scratch, and images of the wells were captured at time 0 h, right before the addition of the treatment. Each drug (1b and 1g) was previously diluted in the respective medium at two different concentrations: 1 × IC50 and 4 × IC50 (according to the cell specific IC50 value) and were then added to the cells. Images were then taken at timepoints 4, 8, 20, and 24 h using the Leica microscope with a JAI TMC‐137 camera to assess wound closure. The images were analyzed using the Universal Grab 6.3 software (DCILabs), and the obtained data were used to determine the percentage of migration of the cells, using the following formula. (2) % Migration=Mean width of the wound atT=0−Mean width of the wound atT=X/Mean width of the wound atT=0×100

[2] = system: PDAC3; experiment: SRB chemosensitivity assay, primary PDAC3 cells
Protocol: (§2) Three lines of immortalized PDAC cells were selected as representative phenotypes: mesenchymal (PATU‐T), quasimesenchymal (PANC‐1), and an epithelial clone of SUIT 2 cells (SUIT 2.28). Cells were cultured in noncoated T‐75 and T‐25 flasks under adherent conditions, using 1× DMEM (Gibco, 41,966,029) for PATU‐T and RPMI (Gibco, 21,875,034) for SUIT 2.28 and PANC‐1, both supplemented with 10% NBCS and 1% P/S. Additional employed models were the PDAC3 cells, a primary cell culture, the PSCs, which were immortalized healthy pancreatic cells, and the PATU‐T‐GR, which was a gemcitabine resistant model of PATU‐T. PDAC3 and PSCs were cultivated using complete RPMI medium, while PATU‐T‐GR required complete DMEM medium. For seeding, cells were detached with Trypsin‐EDTA (0.05%) (GibcoTM, 25,300–096) and were consequently counted using the Automated Cell Counter (Luna‐II, Westburg). Cells were then plated on 96‐ or 6‐well plates depending on the planned experiment.
(§3) The Sulforhodamine B (SRB) chemosensitivity assay was used to measure cytotoxicity and cell proliferation post drug treatment. At day 0, 3–6 × 10^3 cells were seeded in a 96‐well plate, depending on the cell line. At day 1, cells were attached and ready to be treated. For the calculation of the IC50, drug dilutions for the compounds 1b, 1c, 1d, 1e, 1g, 1hr, 1i, 1j, and LDC4297 (MedChemExpress, HY‐12,653) were prepared in dilution trays and eight different concentrations were included. These were added in triplicates to the cells, which were then incubated for […] at 37 °C in 5% CO2. During day 1, the control plate was fixed with 50% Trichloroacetic acid (TCA), as intended to be the baseline plate used for the normalization of the data. 72 h post‐treatment, the cells were fixed with TCA, and placed at 4 °C for about 2 h. The plates were then washed with distillated water and left to dry under the hood with ventilation. Subsequently, plates were stained with 0.4% SRB for 15 min and washed with 1% acetic acid to remove excess stain. Once dried again, the protein‐bound SRB was dissolved in 10 mM TRIS, and the plates were placed on a shaker for 10 min per plate. Lastly, the absorbance was measured at 492 nm with a spectrophotometer (Synergy HT, BioTek). The absorbance data obtained were normalized to the day 1 control, and the percentage of cell growth in relation to the control was calculated using the following formula. (1) %Cell growth=Mean OD treatment−Mean OD day0/Mean OD control−Mean OD day0×100
(§4) The percentage of proliferation and their respective standard deviations were used to perform statistical analysis in GraphPad Prism software v 10 (GraphPad Software, San Diego, CA). Data were normalized to the day 0 control and to their own untreated 72 h control. These were transformed into logarithmic data, and log(inhibitor) versus response analysis was performed for obtaining the IC50 values per cell lines. Each experiment was conducted in triplicates.

[3] = system: PANC‐1; experiment: SRB chemosensitivity assay, PANC‐1 cells; details: Homo sapiens, read-out: IC50 PANC‐1
Protocol: as §2, §3, §4

[4] = system: PATU‐T GR; experiment: SRB chemosensitivity assay, gemcitabine resistant PATU‐T GR cells
Protocol: as §2, §3
The percentage of proliferation and their respective standard deviations were used to perform statistical analysis in GraphPad Prism software v 10 (GraphPad Software, San Diego, CA). Data were normalized to the day 0 control and to their own untreated 72 h control. […]

[5] = system: PATU‐T GR; experiment: Wound healing assay, PATU‐T GR; details: 1× and 4 × IC50, up to 24 h
Protocol: as §1

SMILES | inhibition of cell migration ([1]; SUIT 2.28, 1 × IC50 and 4 × IC50) | IC50 ([2]; PDAC-3, SRB, primary cell line, average ± SEM, triplicate, read-out: IC50 PDAC3) [µM] | IC50 ([2]; SRB, primary cell line, average ± SEM, triplicate, read-out: IC50 PDAC3) [µM] | IC50 ([3]; PANC-1, SRB, 72 h of treatment, average ± SEM, triplicate) [µM] | IC50 ([4]; SRB, gemcitabine resistant PATU‐T GR, average ± SEM, triplicate; read-out: IC50 PATU‐GR) | inhibition of cell migration [5] | inhibition of cell migration ([1]; SUIT 2.28, 1 × IC50) | IC50 ([2]; PDAC-3, read-out: IC50 PDAC3, SRB, primary cell line, average ± SEM, triplicate) [µM] | IC50 ([2]; read-out: IC50 PDAC3, SRB, primary cell line, average ± SEM, triplicate) [µM] | IC50 ([3]; PANC-1, 72 h) [µM] | IC50 ([4]; read-out: IC50 PATU‐GR, SRB, gemcitabine resistant PATU‐T GR, average ± SEM, triplicate) [µM] | IC50 ([4]; read-out: IC50 PATU‐GR; SRB, gemcitabine resistant PATU‐T GR, average ± SEM, triplicate) [µM]
Nc1ncnc2cc(-c3c[nH]c4ccc(Br)cc34)nn12 [Compound 1b, 7‐(5‐Bromo‐1H‐indol‐3‐yl)pyrazolo[1,5‐a][1,3,5]triazin‐4‐amine] | strong inhibitory effects | 1.27 | 1.3 ± 0.2 | 4.3 ± 0.8 | 1.92 µM and 1.9 µM | significantly inhibited as early as 4 h | – | – | – | – | – | –
Cn1cc(-c2cc3ncnc(N)n3n2)c2cc(Br)ccc21 [Compound 1g, 7‐(5‐Bromo‐1‐methyl‐1H‐indol‐3‐yl)pyrazolo[1,5‐a][1,3,5]triazin‐4‐amine] | – | – | – | – | – | significantly inhibited as early as 4 h | greatest inhibition | 0.684 | 0.7 ± 0.1 | 2.9 ± 0.8 | 2.7 | 2.7 ± 0.5

Reference: article PMC12503906, “Novel Pyrazolo [1,5‐a]−1,3,5‐Triazine Derivatives as CDK7 Inhibitors: Synthesis and Biological Insights in Pancreatic Ductal Adenocarcinoma Models” (Chemmedchem, 2025)
